Test results published in ChEMBL document CHEMBL1201862, “PubChem BioAssay data set” (2004).
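Five compound concentrations were applied to cells in 96-well plates for 48 hours; endpoints were derived by simple linear interpolation of the resulting dose-response curve. The concentration for 50% growth inhibition is given as GI50.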 Activity calls are given as the source filed them. Cut-off read from the data, not from the text of the source: active = GI50 up to about 1.1 µM and inactive = higher.

Key:
Experiment in all cases: growth of human tumour cells (NCI), 48 h
A498 = system: A498
CCRF-CEM = system: CCRF-CEM
HCC 2998 = system: HCC 2998
HOP-92 = system: HOP-92
HT-29 = system: HT-29
Hs-578T = system: Hs-578T
M14 = system: M14
MCF7 = system: MCF7
MDA-MB-231 = system: MDA-MB-231
NCI-H23 = system: NCI-H23
NCI-H460 = system: NCI-H460
NCI-H522 = system: NCI-H522
PC-3 = system: PC-3
SNB-75 = system: SNB-75
T47D = system: T47D
U-251 = system: U-251
UO-31 = system: UO-31
MDA-MB-435 = system: MDA-MB-435
UACC-62 = system: UACC-62
RXF 393 = system: RXF 393

Measured: GI50

O=[N+]([O-])C(=C(Nc1ccccc1)Nc1ccccc1)/C(Cl)=C(\Cl)Br
inactive: A498 19.1 µM | CCRF-CEM 2.15 µM | HCC 2998 17.1 µM | HOP-92 17.7 µM | HT-29 16.2 µM | Hs-578T 27 µM | M14 4.89 µM | MCF7 12.5 µM | MDA-MB-231 15.6 µM | NCI-H23 12.1 µM | NCI-H460 21.3 µM | NCI-H522 2.51 µM | PC-3 15.6 µM | SNB-75 12.4 µM | T47D 12.7 µM | U-251 15 µM | UO-31 10.1 µM

Cc1cc(C)c(OC(=O)Nc2cccc3ccccc23)c(-c2ccccc2)c1
inactive: CCRF-CEM 22.2 µM | HCC 2998 27.7 µM | HOP-92 26.1 µM | HT-29 43.2 µM | Hs-578T 25 µM | M14 29.1 µM | MCF7 52.5 µM | MDA-MB-231 25.5 µM | MDA-MB-435 30.1 µM | NCI-H23 30.5 µM | NCI-H460 47.9 µM | PC-3 15.9 µM | SNB-75 14.5 µM | T47D 48.6 µM | U-251 37.8 µM | UACC-62 30.4 µM | UO-31 7.52 µM

CS(=O)(=O)Nc1ccc(N2Cc3c[nH]c4ccc5nccc2c5c34)cc1
inactive: A498 23.2 µM | CCRF-CEM 7.33 µM | HOP-92 12.9 µM | HT-29 25.5 µM | Hs-578T 39.1 µM | M14 15.5 µM | MCF7 8.65 µM | MDA-MB-231 13.6 µM | MDA-MB-435 15.5 µM | NCI-H23 24.6 µM | NCI-H460 19.4 µM | NCI-H522 10.3 µM | PC-3 16.1 µM | T47D 3.5 µM | U-251 15.4 µM | UACC-62 16.3 µM | UO-31 > 100 µM

Nc1cccc2cc(Cl)cnc12
inactive: A498 > 100 µM | CCRF-CEM 16.1 µM | HCC 2998 > 100 µM | HOP-92 > 100 µM | HT-29 > 100 µM | Hs-578T 36.3 µM | M14 > 100 µM | MDA-MB-231 > 100 µM | MDA-MB-435 > 100 µM | NCI-H23 > 100 µM | NCI-H460 > 100 µM | NCI-H522 > 100 µM | PC-3 97.1 µM | RXF 393 > 100 µM | SNB-75 34.4 µM | T47D 15.2 µM | U-251 > 100 µM | UACC-62 56.8 µM | UO-31 26.7 µM

Cc1c(C)c(S(=O)(=O)N(CCCCCN)OCCCN)c(C)c2c1OC(C)(C)CC2
inactive: A498 18.6 µM | CCRF-CEM 2.6 µM | HCC 2998 2.27 µM | HOP-92 18.3 µM | HT-29 13 µM | Hs-578T 6.73 µM | M14 27.7 µM | MDA-MB-231 5.89 µM | MDA-MB-435 5.82 µM | NCI-H23 14.6 µM | NCI-H460 6.35 µM | NCI-H522 6.28 µM | PC-3 4.06 µM | RXF 393 11.6 µM | SNB-75 6.4 µM | T47D 16.6 µM | U-251 5.64 µM | UACC-62 12.9 µM | UO-31 20.1 µM

COc1ccc(/C(Cl)=C(\C=O)c2cc(OC)c(OC)c(OC)c2)cc1OC
inactive: A498 37.9 µM | CCRF-CEM 26.1 µM | HCC 2998 26.4 µM | HOP-92 49 µM | HT-29 12.8 µM | Hs-578T 27.5 µM | M14 56.4 µM | MDA-MB-231 68.5 µM | MDA-MB-435 48.4 µM | NCI-H23 12.3 µM | NCI-H460 18.5 µM | NCI-H522 7.38 µM | PC-3 55.1 µM | RXF 393 > 100 µM | SNB-75 10.8 µM | T47D 20.4 µM | U-251 23 µM | UACC-62 15.7 µM | UO-31 16.8 µM
